Data as given in the supplement of paper PMC10307832.

How the values were obtained:
Test in all cases: relative viability (nuclei count vs DMSO), 5 days (fraction); higher = more cells survive
NCI-H1650 = tested on: NCI-H1650
In short: (§1)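 Values are medians from duplicate plates. Each reflects relative viability, defined as the nuclei count of treated wells over that of vehicle wells. Lung cancer cell lines in 1536-well plates were pin-tool dosed one day after seeding with one drug alone or with a fixed anchor-drug dose plus five library-drug doses (not always all listed) in √10 steps, then fixed, stained and imaged at 4× after 5 days.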

HCC-366 = tested on: HCC-366
In short: as §1

NCI-H460 = tested on: NCI-H460
In short: as §1

HCC-44 = tested on: HCC-44
In short: as §1

NCI-H1734 = tested on: NCI-H1734
In short: as §1

A-427 = tested on: A-427
In short: as §1

SW 1573 = tested on: SW 1573
In short: as §1

NCI-H2009 = tested on: NCI-H2009
In short: as §1

NCI-H650 = tested on: NCI-H650
In short: as §1

HARA = tested on: HARA
In short: as §1

LCLC-97TM1 = tested on: LCLC-97TM1
In short: as §1

LOU-NH91 = tested on: LOU-NH91
In short: as §1

NCI-H2023 = tested on: NCI-H2023
In short: as §1

201T = tested on: 201T
In short: as §1

NCI-H1993 = tested on: NCI-H1993
In short: as §1

HCC-78 = tested on: HCC-78
In short: as §1

NCI-H2126 = tested on: NCI-H2126
In short: as §1

HCC-15 = tested on: HCC-15
In short: as §1

RERF-LC-KJ = tested on: RERF-LC-KJ
In short: as §1

COR-L23 = tested on: COR-L23
In short: as §1

NCI-H441 = tested on: NCI-H441
In short: as §1

LCLC-103H = tested on: LCLC-103H
In short: as §1

ChaGo-K-1 = tested on: ChaGo-K-1
In short: as §1

## Cc1cnc(-c2cnc(NCCNc3ccc(C#N)cn3)nc2-c2ccc(Cl)cc2Cl)[nH]1 + CS(=O)(=O)CCNCc1ccc(-c2ccc3ncnc(Nc4ccc(OCc5cccc(F)c5)c(Cl)c4)c3c2)o1 [Lapatinib] (partner 2 µM)
NCI-H1650; first compound 0.08 µM
  relative viability: 0.842
NCI-H1650; first compound 0.253 µM
  relative viability: 0.668
NCI-H1650; first compound 0.8 µM
  relative viability: 0.387
NCI-H1650; first compound 2.53 µM
  relative viability: 0.555
HCC-366; first compound 0.08 µM
  relative viability: 0.989
HCC-366; first compound 0.253 µM
  relative viability: 0.951
HCC-366; first compound 0.8 µM
  relative viability: 1.08
HCC-366; first compound 2.53 µM
  relative viability: 0.935
NCI-H460; first compound 0.08 µM
  relative viability: 0.943
NCI-H460; first compound 0.253 µM
  relative viability: 0.826
NCI-H460; first compound 0.8 µM
  relative viability: 0.864
NCI-H460; first compound 2.53 µM
  relative viability: 0.775
HCC-44; first compound 0.08 µM
  relative viability: 0.99
HCC-44; first compound 0.253 µM
  relative viability: 0.858
HCC-44; first compound 0.8 µM
  relative viability: 0.989
HCC-44; first compound 2.53 µM
  relative viability: 1.06
NCI-H1734; first compound 0.08 µM
  relative viability: 1.13
NCI-H1734; first compound 0.253 µM
  relative viability: 0.901
NCI-H1734; first compound 0.8 µM
  relative viability: 0.882
NCI-H1734; first compound 2.53 µM
  relative viability: 1.05
A-427; first compound 0.08 µM
  relative viability: 1.03
A-427; first compound 0.253 µM
  relative viability: 0.942
A-427; first compound 0.8 µM
  relative viability: 1.09
A-427; first compound 2.53 µM
  relative viability: 1.03
SW 1573; first compound 0.08 µM
  relative viability: 1.02
SW 1573; first compound 0.253 µM
  relative viability: 1.04
SW 1573; first compound 0.8 µM
  relative viability: 1.1
SW 1573; first compound 2.53 µM
  relative viability: 1.02
NCI-H2009; first compound 0.08 µM
  relative viability: 0.991
NCI-H2009; first compound 0.253 µM
  relative viability: 0.522
NCI-H2009; first compound 0.8 µM
  relative viability: 0.866
NCI-H2009; first compound 2.53 µM
  relative viability: 0.905
NCI-H650; first compound 0.08 µM
  relative viability: 0.926
NCI-H650; first compound 0.253 µM
  relative viability: 1.12
NCI-H650; first compound 0.8 µM
  relative viability: 0.478
NCI-H650; first compound 2.53 µM
  relative viability: 0.789
HARA; first compound 0.08 µM
  relative viability: 1.03
HARA; first compound 0.253 µM
  relative viability: 0.598
HARA; first compound 0.8 µM
  relative viability: 0.799
HARA; first compound 2.53 µM
  relative viability: 0.607
LCLC-97TM1; first compound 0.08 µM
  relative viability: 1.1
LCLC-97TM1; first compound 0.253 µM
  relative viability: 0.883
LCLC-97TM1; first compound 0.8 µM
  relative viability: 1.07
LCLC-97TM1; first compound 2.53 µM
  relative viability: 0.745
LOU-NH91; first compound 0.08 µM
  relative viability: 0.811
LOU-NH91; first compound 0.253 µM
  relative viability: 0.738
LOU-NH91; first compound 0.8 µM
  relative viability: 0.739
LOU-NH91; first compound 2.53 µM
  relative viability: 0.866
NCI-H2023; first compound 0.08 µM
  relative viability: 1.23
NCI-H2023; first compound 0.253 µM
  relative viability: 0.431
NCI-H2023; first compound 0.8 µM
  relative viability: 0.827
NCI-H2023; first compound 2.53 µM
  relative viability: 0.913
201T; first compound 0.08 µM
  relative viability: 1.05
201T; first compound 0.253 µM
  relative viability: 0.551
201T; first compound 0.8 µM
  relative viability: 1.01
201T; first compound 2.53 µM
  relative viability: 0.988
NCI-H1993; first compound 0.08 µM
  relative viability: 0.957
NCI-H1993; first compound 0.253 µM
  relative viability: 0.756
NCI-H1993; first compound 0.8 µM
  relative viability: 0.823
NCI-H1993; first compound 2.53 µM
  relative viability: 0.937
HCC-78; first compound 0.08 µM
  relative viability: 0.449
HCC-78; first compound 0.253 µM
  relative viability: 0.528
HCC-78; first compound 0.8 µM
  relative viability: 1.12
HCC-78; first compound 2.53 µM
  relative viability: 0.546
NCI-H2126; first compound 0.08 µM
  relative viability: 0.753
NCI-H2126; first compound 0.253 µM
  relative viability: 0.728
NCI-H2126; first compound 0.8 µM
  relative viability: 0.786
NCI-H2126; first compound 2.53 µM
  relative viability: 0.741
HCC-15; first compound 0.08 µM
  relative viability: 0.813
HCC-15; first compound 0.253 µM
  relative viability: 0.577
HCC-15; first compound 0.8 µM
  relative viability: 0.903
HCC-15; first compound 2.53 µM
  relative viability: 0.843
RERF-LC-KJ; first compound 0.08 µM
  relative viability: 0.902
RERF-LC-KJ; first compound 0.253 µM
  relative viability: 0.777
RERF-LC-KJ; first compound 0.8 µM
  relative viability: 0.771
RERF-LC-KJ; first compound 2.53 µM
  relative viability: 0.932
COR-L23; first compound 0.08 µM
  relative viability: 0.924
COR-L23; first compound 0.253 µM
  relative viability: 0.856
COR-L23; first compound 0.8 µM
  relative viability: 0.862
COR-L23; first compound 2.53 µM
  relative viability: 0.905

## Cc1cnc(-c2cnc(NCCNc3ccc(C#N)cn3)nc2-c2ccc(Cl)cc2Cl)[nH]1 + NC(=O)Nc1cc(-c2cccc(F)c2)sc1C(=O)N[C@H]1CCCNC1 [AZD7762] (partner 0.2 µM)
NCI-H441; first compound 0.08 µM
  relative viability: 1.02
NCI-H441; first compound 0.8 µM
  relative viability: 0.967
NCI-H441; first compound 2.53 µM
  relative viability: 0.993
HCC-366; first compound 0.08 µM
  relative viability: 0.284
HCC-366; first compound 0.253 µM
  relative viability: 0.202
HCC-366; first compound 0.8 µM
  relative viability: 0.197
HCC-366; first compound 2.53 µM
  relative viability: 0.0746
NCI-H460; first compound 0.08 µM
  relative viability: 0.579
NCI-H460; first compound 0.8 µM
  relative viability: 0.557
NCI-H460; first compound 2.53 µM
  relative viability: 0.541
HCC-44; first compound 0.08 µM
  relative viability: 1.05
HCC-44; first compound 0.253 µM
  relative viability: 1.02
HCC-44; first compound 0.8 µM
  relative viability: 1.06
HCC-44; first compound 2.53 µM
  relative viability: 1.15
LCLC-103H; first compound 0.08 µM
  relative viability: 0.86
LCLC-103H; first compound 0.253 µM
  relative viability: 0.76
LCLC-103H; first compound 0.8 µM
  relative viability: 0.714
LCLC-103H; first compound 2.53 µM
  relative viability: 0.757
NCI-H1734; first compound 0.08 µM
  relative viability: 0.513
NCI-H1734; first compound 0.253 µM
  relative viability: 0.522
NCI-H1734; first compound 0.8 µM
  relative viability: 0.543
NCI-H1734; first compound 2.53 µM
  relative viability: 0.459
A-427; first compound 0.08 µM
  relative viability: 0.838
A-427; first compound 0.253 µM
  relative viability: 0.602
A-427; first compound 0.8 µM
  relative viability: 0.692
A-427; first compound 2.53 µM
  relative viability: 0.714
NCI-H650; first compound 0.08 µM
  relative viability: 0.979
NCI-H650; first compound 0.253 µM
  relative viability: 0.872
NCI-H650; first compound 0.8 µM
  relative viability: 0.892
NCI-H650; first compound 2.53 µM
  relative viability: 1.03
HARA; first compound 0.08 µM
  relative viability: 0.297
HARA; first compound 0.253 µM
  relative viability: 0.191
HARA; first compound 0.8 µM
  relative viability: 0.37
HARA; first compound 2.53 µM
  relative viability: 1
LCLC-97TM1; first compound 0.08 µM
  relative viability: 0.269
LCLC-97TM1; first compound 0.253 µM
  relative viability: 0.186
LCLC-97TM1; first compound 0.8 µM
  relative viability: 0.15
LCLC-97TM1; first compound 2.53 µM
  relative viability: 0.235
LOU-NH91; first compound 0.08 µM
  relative viability: 0.823
LOU-NH91; first compound 0.253 µM
  relative viability: 0.753
LOU-NH91; first compound 0.8 µM
  relative viability: 0.768
LOU-NH91; first compound 2.53 µM
  relative viability: 0.83
201T; first compound 0.08 µM
  relative viability: 0.702
201T; first compound 0.8 µM
  relative viability: 0.567
201T; first compound 2.53 µM
  relative viability: 0.619
NCI-H1993; first compound 0.08 µM
  relative viability: 0.918
NCI-H1993; first compound 0.253 µM
  relative viability: 0.683
NCI-H1993; first compound 0.8 µM
  relative viability: 0.703
NCI-H1993; first compound 2.53 µM
  relative viability: 0.9
HCC-78; first compound 0.08 µM
  relative viability: 0.582
HCC-78; first compound 0.253 µM
  relative viability: 0.582
HCC-78; first compound 0.8 µM
  relative viability: 0.604
HCC-78; first compound 2.53 µM
  relative viability: 0.606
NCI-H2126; first compound 0.08 µM
  relative viability: 1.03
NCI-H2126; first compound 0.253 µM
  relative viability: 0.939
NCI-H2126; first compound 0.8 µM
  relative viability: 0.984
NCI-H2126; first compound 2.53 µM
  relative viability: 1.02
HCC-15; first compound 0.08 µM
  relative viability: 1.17
HCC-15; first compound 0.253 µM
  relative viability: 0.968
HCC-15; first compound 0.8 µM
  relative viability: 1.2
HCC-15; first compound 2.53 µM
  relative viability: 1.13
RERF-LC-KJ; first compound 0.08 µM
  relative viability: 1.08
RERF-LC-KJ; first compound 0.253 µM
  relative viability: 0.801
RERF-LC-KJ; first compound 0.8 µM
  relative viability: 0.881
RERF-LC-KJ; first compound 2.53 µM
  relative viability: 0.985
ChaGo-K-1; first compound 0.08 µM
  relative viability: 0.843
ChaGo-K-1; first compound 0.253 µM
  relative viability: 0.754
ChaGo-K-1; first compound 0.8 µM
  relative viability: 0.82
ChaGo-K-1; first compound 2.53 µM
  relative viability: 0.814
